Experimental data from PMC3254785 (2011).

How the values were obtained:
[1] = target: T1, soluble guanylyl cyclase (sGC) (Homo sapiens, UniProt Q02153); assay: anaerobic; format: binding
T1 sequence (Q02153 1-619): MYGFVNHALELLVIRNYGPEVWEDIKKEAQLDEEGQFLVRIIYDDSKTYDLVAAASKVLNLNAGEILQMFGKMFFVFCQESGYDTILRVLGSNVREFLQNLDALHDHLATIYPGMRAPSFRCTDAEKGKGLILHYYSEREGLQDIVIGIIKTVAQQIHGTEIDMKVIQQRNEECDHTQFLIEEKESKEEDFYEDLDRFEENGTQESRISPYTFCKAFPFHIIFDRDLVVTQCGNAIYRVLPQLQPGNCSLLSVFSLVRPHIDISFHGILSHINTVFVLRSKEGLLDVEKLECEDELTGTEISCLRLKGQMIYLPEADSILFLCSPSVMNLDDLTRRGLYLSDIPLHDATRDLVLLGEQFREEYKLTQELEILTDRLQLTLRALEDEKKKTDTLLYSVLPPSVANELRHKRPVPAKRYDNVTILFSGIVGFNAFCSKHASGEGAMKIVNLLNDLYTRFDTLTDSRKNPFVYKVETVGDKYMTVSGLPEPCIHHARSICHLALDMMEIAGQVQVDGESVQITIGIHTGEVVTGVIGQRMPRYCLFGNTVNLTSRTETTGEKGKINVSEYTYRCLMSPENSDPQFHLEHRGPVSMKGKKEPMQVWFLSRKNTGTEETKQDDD
T1 sequence (Q02108 1-690 partner): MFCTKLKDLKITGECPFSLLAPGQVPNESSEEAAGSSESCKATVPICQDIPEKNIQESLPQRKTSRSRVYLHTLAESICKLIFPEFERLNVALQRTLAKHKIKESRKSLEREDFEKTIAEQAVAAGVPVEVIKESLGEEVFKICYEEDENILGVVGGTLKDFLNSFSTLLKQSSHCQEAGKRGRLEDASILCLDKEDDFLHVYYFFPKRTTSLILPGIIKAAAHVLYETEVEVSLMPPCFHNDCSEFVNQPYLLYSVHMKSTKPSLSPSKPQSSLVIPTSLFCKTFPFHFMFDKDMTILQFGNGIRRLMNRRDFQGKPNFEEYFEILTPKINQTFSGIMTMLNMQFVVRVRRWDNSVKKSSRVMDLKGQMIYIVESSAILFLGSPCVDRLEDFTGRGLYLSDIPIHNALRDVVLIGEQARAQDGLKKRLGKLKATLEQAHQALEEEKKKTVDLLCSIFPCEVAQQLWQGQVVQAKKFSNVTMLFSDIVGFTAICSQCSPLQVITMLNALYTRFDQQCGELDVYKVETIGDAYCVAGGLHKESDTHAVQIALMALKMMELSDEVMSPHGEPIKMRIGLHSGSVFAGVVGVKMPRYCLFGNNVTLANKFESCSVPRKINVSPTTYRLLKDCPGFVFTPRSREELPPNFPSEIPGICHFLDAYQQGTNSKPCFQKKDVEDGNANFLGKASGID

Ns H-NOX = Ns H-NOX (Nostoc sp. PCC 7120 = FACHB-418, UniProt A0ACD6B960); assay: biochemical
Chain of Ns H-NOX (A0ACD6B960 1-189): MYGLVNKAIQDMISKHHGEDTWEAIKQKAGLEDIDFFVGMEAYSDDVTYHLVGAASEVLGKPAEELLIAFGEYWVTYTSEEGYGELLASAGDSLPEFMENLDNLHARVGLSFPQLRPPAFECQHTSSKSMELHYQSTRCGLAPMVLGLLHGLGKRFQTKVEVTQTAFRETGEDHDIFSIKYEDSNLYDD

| Compound | Kd [1] | Kd (Ns H-NOX) |
| --- | --- | --- |
| [N]=O [NO] | 54 nM | – |
| O=O [O2] | – | 13 mM |
